Experiment [1] concerns COMI. Nature of the experiment: Inhibition of mitochondrial translation in human COMI cells assessed as decrease in COX2 expression level at 0.5 to 5 uM incubated for 48 hrs by immunoblotting analysis. In kind it is functional, cell-based. The settings on record: dose 0.5-5 µM. A general note: A western blot detects proteins with antibodies after separation by electrophoresis.

The test system of experiment [2] is COMI. Nature of the experiment: Inhibition of mitochondrial translation in human COMI cells assessed as decrease in COX1 expression level at 0.5 uM incubated for 24 hrs in the presence of quinupristin and emetine by [35S]-methionine labelling based SDS-PAGE analysis. In kind it is functional, cell-based.
The subject of experiment [3] is COMI. Nature of the experiment: Inhibition of mitochondrial translation in human COMI cells assessed as decrease in ND3 expression level at 0.5 uM incubated for 24 hrs in the presence of quinupristin and emetine by [35S]-methionine labelling based SDS-PAGE analysis. The format is functional, cell-based.
The test system of experiment [4] is COMI. Nature of the experiment: Growth inhibition of human COMI cells incubated for 48 hrs in the presence of quinupristin by Hoechst 33342/PI staining based analysis. The format is functional.
In experiment [5] the test system is VIPI. Nature of the experiment: Growth inhibition of human VIPI cells incubated for 48 hrs in the presence of quinupristin by Hoechst 33342/PI staining based analysis. The format is functional.
For experiment [6], the system named is COMI. Nature of the experiment: Inhibition of mitochondrial translation in human COMI cells assessed as increase in COX4 expression level at 0.5 to 5 uM incubated for 48 hrs by immunoblotting analysis. The note with it: dose 0.5-5 µM. In kind it is functional, cell-based.
In experiment [7] the test system is COMI. Nature of the experiment: Inhibition of mitochondrial translation in human COMI cells assessed as decrease in COX2 expression level at 0.38 uM incubated for 24 hrs in the presence of emetine by [35S]-methionine labelling based SDS-PAGE analysis. The format is functional, cell-based.
The test system of experiment [8] is VIPI. Nature of the experiment: Growth inhibition of human VIPI cells incubated for 48 hrs by Hoechst 33342/PI staining based analysis. In kind it is functional.
The test system of experiment [9] is COMI. Nature of the experiment: Inhibition of mitochondrial translation in human COMI cells assessed as decrease in ND3 expression level at 0.38 uM incubated for 24 hrs in the presence of emetine by [35S]-methionine labelling based SDS-PAGE analysis. The format is functional, cell-based.
Experiment [10] relates to COMI. Nature of the experiment: Growth inhibition of human COMI cells in the presence of quinupristin. The format is functional.
Experiment [11] relates to COMI. Nature of the experiment: Growth inhibition of human COMI cells incubated for 48 hrs by Hoechst 33342/PI staining based analysis. In kind it is functional.
Experiment [12] in a line: Potency index, ratio of temozolomide GI50 to test compound GI50 for human VIPI cells in the presence of quinupristin. The format is functional.
The subject of experiment [13] is COMI. Nature of the experiment: Inhibition of mitochondrial translation in human COMI cells assessed as decrease in ND3 expression level at 0.5 to 5 uM incubated for 48 hrs in the presence of quinupristin by immunoblotting analysis. In kind it is functional, cell-based. The note with it: dose 0.5-5 µM.
Experiment [14] relates to VIPI. Nature of the experiment: Growth inhibition of human VIPI cells in the presence of quinupristin. The format is functional.
Experiment [15] deals with COMI. Nature of the experiment: Potency index, ratio of temozolomide GI50 to test compound GI50 for human COMI cells in the presence of quinupristin. The format is functional.
The test system of experiment [16] is COMI. Nature of the experiment: Inhibition of mitochondrial translation in human COMI cells assessed as decrease in ND3 expression level at 0.5 to 5 uM incubated for 48 hrs by immunoblotting analysis. In kind it is functional, cell-based. The note with it: dose 0.5-5 µM.
Experiment [17] relates to COMI. Nature of the experiment: Inhibition of mitochondrial translation in human COMI cells assessed as decrease in COX1 expression level at 0.5 to 5 uM incubated for 48 hrs by immunoblotting analysis. In kind it is functional, cell-based. The settings on record: dose 0.5-5 µM.
Experiment [18] deals with COMI. Nature of the experiment: Inhibition of mitochondrial translation in human COMI cells assessed as decrease in COX1 expression level at 0.38 uM incubated for 24 hrs in the presence of emetine by [35S]-methionine labelling based SDS-PAGE analysis. In kind it is functional, cell-based.
Experiment [19] has as its system COMI. Nature of the experiment: Inhibition of mitochondrial translation in human COMI cells assessed as decrease in COX1 expression level at 0.5 to 5 uM incubated for 48 hrs in the presence of quinupristin by immunoblotting analysis. The settings on record: dose 0.5-5 µM. The format is functional, cell-based.
Experiment [20] deals with COMI. Nature of the experiment: Inhibition of mitochondrial translation in human COMI cells assessed as increase in COX4 expression level at 0.5 to 5 uM incubated for 48 hrs in the presence of quinupristin by immunoblotting analysis. The format is functional, cell-based. The settings on record: dose 0.5-5 µM.
Experiment [21] deals with COMI. Nature of the experiment: Inhibition of mitochondrial translation in human COMI cells assessed as decrease in COX2 expression level at 0.5 uM incubated for 24 hrs in the presence of quinupristin and emetine by [35S]-methionine labelling based SDS-PAGE analysis. The format is functional, cell-based.
Experiment [22] deals with COMI. Nature of the experiment: Inhibition of mitochondrial translation in human COMI cells assessed as decrease in COX2 expression level at 0.5 to 5 uM incubated for 48 hrs in the presence of quinupristin by immunoblotting analysis. In kind it is functional, cell-based. The note with it: dose 0.5-5 µM.
The test system of experiment [23] is COMI. Nature of the experiment: Inhibition of mitochondrial translation in human COMI cells assessed as decrease in COX2 expression level at 0.38 to 2 uM incubated for 24 hrs in the presence of emetine by [35S]-methionine labelling based SDS-PAGE analysis. The note with it: dose 0.38-2 µM. The format is functional, cell-based.
Experiment [24] relates to COMI. Nature of the experiment: Inhibition of mitochondrial translation in human COMI cells assessed as decrease in ND3 expression level at 0.5 to 5 uM incubated for 48 hrs in the presence of dalfopristin by immunoblotting analysis. In kind it is functional, cell-based. The note with it: dose 0.5-5 µM.
Experiment [25] has as its system COMI. Nature of the experiment: Inhibition of mitochondrial translation in human COMI cells assessed as decrease in COX1 expression level at 0.5 uM incubated for 24 hrs in the presence of dalfopristin and emetine by [35S]-methionine labelling based SDS-PAGE analysis. The format is functional, cell-based.
Experiment [26] deals with VIPI. Nature of the experiment: Growth inhibition of human VIPI cells in the presence of dalfopristin. In kind it is functional.
The test system of experiment [27] is COMI. Nature of the experiment: Inhibition of mitochondrial translation in human COMI cells assessed as decrease in COX1 expression level at 0.5 to 5 uM incubated for 48 hrs in the presence of dalfopristin by immunoblotting analysis. In kind it is functional, cell-based. The settings on record: dose 0.5-5 µM.
Experiment [28] has as its system COMI. Nature of the experiment: Potency index, ratio of temozolomide GI50 to test compound GI50 for human COMI cells in the presence of dalfopristin. The format is functional.
Experiment [29] deals with COMI. Nature of the experiment: Inhibition of mitochondrial translation in human COMI cells assessed as decrease in COX2 expression level at 0.5 uM incubated for 24 hrs in the presence of dalfopristin and emetine by [35S]-methionine labelling based SDS-PAGE analysis. In kind it is functional, cell-based.
In experiment [30] the test system is COMI. Nature of the experiment: Inhibition of mitochondrial translation in human COMI cells assessed as decrease in ND3 expression level at 0.5 uM incubated for 24 hrs in the presence of dalfopristin and emetine by [35S]-methionine labelling based SDS-PAGE analysis. The format is functional, cell-based.
In experiment [31] the test system is COMI. Nature of the experiment: Growth inhibition of human COMI cells incubated for 48 hrs in the presence of dalfopristin by Hoechst 33342/PI staining based analysis. In kind it is functional.
Experiment [32] deals with COMI. Nature of the experiment: Inhibition of mitochondrial translation in human COMI cells assessed as decrease in ND3 expression level at 0.38 to 2 uM incubated for 24 hrs in the presence of emetine by [35S]-methionine labelling based SDS-PAGE analysis. In kind it is functional, cell-based. The settings on record: dose 0.38-2 µM.
The subject of experiment [33] is COMI. Nature of the experiment: Inhibition of mitochondrial translation in human COMI cells assessed as decrease in COX2 expression level at 0.5 to 5 uM incubated for 48 hrs in the presence of dalfopristin by immunoblotting analysis. The format is functional, cell-based. The note with it: dose 0.5-5 µM.
The subject of experiment [34] is COMI. Nature of the experiment: Inhibition of mitochondrial translation in human COMI cells assessed as increase in COX4 expression level at 0.5 to 5 uM incubated for 48 hrs in the presence of dalfopristin by immunoblotting analysis. The format is functional, cell-based. The settings on record: dose 0.5-5 µM.
Experiment [35] deals with VIPI. Nature of the experiment: Growth inhibition of human VIPI cells incubated for 48 hrs in the presence of dalfopristin by Hoechst 33342/PI staining based analysis. In kind it is functional.
Experiment [36] deals with COMI. Nature of the experiment: Inhibition of mitochondrial translation in human COMI cells assessed as decrease in COX1 expression level at 0.38 to 2 uM incubated for 24 hrs in the presence of emetine by [35S]-methionine labelling based SDS-PAGE analysis. In kind it is functional, cell-based. The note with it: dose 0.38-2 µM.
The nature of experiment [37]: Potency index, ratio of temozolomide GI50 to test compound GI50 for human VIPI cells in the presence of dalfopristin. In kind it is functional.
For experiment [38], the system named is COMI. Nature of the experiment: Growth inhibition of human COMI cells in the presence of dalfopristin. In kind it is functional.
Experiment [39] deals with COMI. Nature of the experiment: Growth inhibition of human COMI cells. The format is functional.
Experiment [40] has as its system VIPI. Nature of the experiment: Growth inhibition of human VIPI cells. In kind it is functional.

Structures are written as SMILES. Active and inactive are the calls of the source. The rule behind the calls is not given here. *1 amine or outer side, *2 acyl side, *3 side chain or, on linkers, in order; H or OH if unused. Where a SMILES comes first, the peptide text is derived from it. Bridges are numbered along the chain shown (N, C = ends). [ ]: non-standard residue; d: D form. The star is where a group is joined. X1 = O=C1C[C@@H](C(=O)[*:2])N([*:1])C[C@H]1CS[C@@H]1CN2CCC1CC2; NMePhe(4-NMe2) = CN[C@@H](Cc1ccc(N(C)C)cc1)C(=O)O; Picolinoyl(3-OH) = O=C(c1ncccc1O)*; Phg = N[C@H](C(=O)O)c1ccccc1; dAbu = CC[C@@H](N)C(=O)O

Usually GI50 stands for the concentration at which growth is held to half of that of the control. As to `CCN(CC)CCS(=O)(=O)[C@@H]1CCN2C(=O)c3coc(n3)CC(=O)C[C@H](O)/C=C(C)/C=C/CNC(=O)/C=C/[C@@H](C)[C@@H](C(C)C)OC(=O)[C@@H]12` [DALFOPRISTIN], the inhibition entry in experiment [1], in experiment [2], in experiment [3], in [6], in [7] and in experiment [9] was “Active” each time. Also, the inhibition result in [13], in experiment [16], in [17], in experiment [18], in experiment [19] and in experiment [20] was “Active” each time. For the same compound, the inhibition result in [21] and in experiment [22] was “Active” each time. Further, the GI50 was determined as 6.5 µM in experiment [4]; 20.2 µM in [5]; 16.2 µM in experiment [8]; 6.5 µM in experiment [10]; 8.6 µM in [11]; 20.2 µM in experiment [14]. Further, the RatioGI50 in experiment [12] and in [15] was 15 in each case.
With `CC[C@H]1NC(=O)[C@@H](NC(=O)c2ncccc2O)[C@@H](C)OC(=O)[C@H](c2ccccc2)NC(=O)[C@@H]2CC(=O)[C@H](CS[C@@H]3CN4CCC3CC4)CN2C(=O)[C@H](Cc2ccc(N(C)C)cc2)N(C)C(=O)[C@@H]2CCCN2C1=O` [QUINUPRISTIN] ({Picolinoyl(3-OH)}-T[dAbu]P[NMePhe(4-NMe2)][X1][Phg]; ester 1-C), the inhibition entry in [1], in experiment [23], in experiment [6], in experiment [32], in experiment [16] and in experiment [17] was “inactive” each time. In addition, the inhibition entry in [36] was “inactive”. In addition, the inhibition result in experiment [24], in experiment [25], in experiment [27], in experiment [29], in experiment [30] and in experiment [33] was “Active” throughout. In addition, the inhibition entry in experiment [34] was “Active”. Further, the GI50 in [26] came out at 20.2 µM; in [8], 21.4 µM; in [11] it was 3 µM; in experiment [31], 6.5 µM; in experiment [35], 20.2 µM; in experiment [38] it was 6.5 µM. In addition, the RatioGI50 in experiment [28] and in experiment [37] was 15 in each case.
As to `Cn1nnc2c(C(N)=O)ncn2c1=O` [TEMOZOLOMIDE], the GI50 in experiment [39] turned out to be 96.5 µM; in experiment [40], 338 µM.
